Columns and labels:
human DGAT1 = target: T1, human DGAT1 (Homo sapiens, UniProt O75907); test: Inhibition of DGAT1 activity, FlashPlate assay with DGAT1 membrane preparations and substrate micelles; type: biochemical; details: pIC50 = -logIC50, IC50 values expressed in M
T1 construct: FLAG (N); made in house; host or cells: SF9 insect cells (pFastBac baculovirus); total cell membranes
T1 sequence (O75907 1-488): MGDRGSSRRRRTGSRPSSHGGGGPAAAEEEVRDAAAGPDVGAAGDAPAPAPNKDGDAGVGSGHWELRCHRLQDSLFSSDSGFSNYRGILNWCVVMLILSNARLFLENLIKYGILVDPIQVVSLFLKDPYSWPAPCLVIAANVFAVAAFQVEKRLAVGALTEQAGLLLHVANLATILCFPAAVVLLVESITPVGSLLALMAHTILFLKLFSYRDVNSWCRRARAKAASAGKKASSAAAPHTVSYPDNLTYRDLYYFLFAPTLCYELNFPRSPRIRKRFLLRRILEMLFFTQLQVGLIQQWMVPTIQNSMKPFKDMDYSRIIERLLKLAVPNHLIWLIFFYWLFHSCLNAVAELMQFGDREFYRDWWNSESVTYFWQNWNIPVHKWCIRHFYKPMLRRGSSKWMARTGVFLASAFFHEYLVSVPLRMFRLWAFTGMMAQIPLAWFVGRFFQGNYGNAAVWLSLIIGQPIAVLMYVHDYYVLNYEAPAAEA
How it was run: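 FLAG-tagged human DGAT1 membranes (expressed in Sf9 cells) were incubated 120 min at 37° C. in 50 mM Tris-HCl pH 7.4 with 150 mM MgCl2, 1 mM EDTA, 0.2% BSA, 50 μM DAG micelles (PC/PS) and 8.4 μM [^3H]-oleoylCoA. The reaction was stopped with N-ethylmaleimide and read as FlashPlate radioluminescence. Responses were normalized to enzyme/no-enzyme controls to fit dose-response curves.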

Compound `COc1ccc(CNC(=O)c2ccc(N3CCN(C(=O)Nc4c(Cl)cc(CC(=O)N5CCN(C)CC5)cc4Cl)CC3)cc2)cc1` [Compound 228] has a melting point of 220.01 °C and an IC50 (human DGAT1) of 19.1 nM.

Compound `O=C(CCCc1cccnc1)Nc1ccc(N2CCN(C(=O)Nc3c(Cl)cccc3Cl)CC2)cc1` [Compound 194] has a melting point of 233 to 234 °C and an IC50 (human DGAT1) of 33.9 nM.

`O=C(CCCc1ccccc1)Nc1ccc(N2CCN(C(=O)C(O)c3ccccc3Cl)CC2)cc1` (stereo not drawn) [Compound 19] gave a melting point of 142.3 °C and an IC50 (human DGAT1) of 30.9 nM.

Compound `C=CC(=O)Nc1ccc(N2CCN(C(=O)Nc3c(Cl)cccc3Cl)CC2)cc1` [Compound 202] has a melting point of 245 to 246 °C and an IC50 (human DGAT1) of 107 nM.

For `COc1ccc(CNCCC(=O)Nc2ccc(N3CCN(C(=O)Nc4c(Cl)cccc4Cl)CC3)cc2)cc1` [Compound 32], the melting point was 188 to 189 °C and the IC50 (human DGAT1) was 347 nM.

With `Cc1ccc(NCC(=O)Nc2ccc(N3CCN(C(=O)Nc4c(Cl)cc(O)cc4Cl)CC3)cc2)c(C)c1` [Compound 185] the melting point was 202 to 203 °C and the IC50 (human DGAT1) was 3.72 nM.

With `Cc1ccc(NCCC(=O)Nc2ccc(N3CCN(C(=O)Nc4c(Cl)cc(O)cc4Cl)CC3)cc2)c(C)c1` [Compound 280] the melting point was 227 to 228 °C and the IC50 (human DGAT1) was 6.76 nM.

`O=C(CCCC(=O)OCc1ccccc1)Nc1ccc(N2CCN(C(=O)Nc3c(Cl)cc(CN4CCCCC4)cc3Cl)CC2)cc1` [Compound 292] gave a melting point of 180 to 181 °C and an IC50 (human DGAT1) of 10.7 nM.

`CN(Cc1ccccc1)C(=O)c1ccc(N2CCN(C(=O)Nc3c(Cl)cc(CN4CCCC4)cc3Cl)CC2)cc1` [Compound 266] showed a melting point of 161.47 °C and an IC50 (human DGAT1) of 6170 nM.

With `CCOC(=O)c1ccc(CCCCCNC(=O)c2ccc(N3CCN(C(=O)Nc4c(Cl)cc(CN5CCCC5)cc4Cl)CC3)cc2)cc1` [Compound 226] the melting point was 180.97 °C and the IC50 (human DGAT1) was 9.77 nM.

In the case of `O=C(NCc1cccc2ccccc12)c1ccc(N2CCN(C(=O)Cc3c(Cl)cccc3Cl)CC2)cc1` [Compound 229], the melting point is reported as 242.15 °C and the IC50 (human DGAT1) is reported as 30.9 nM.

`COc1cc(CNC(=O)c2ccc(N3CCN(C(=O)Cc4c(Cl)cccc4Cl)CC3)cc2)cc(OC)c1` [Compound 225] showed a melting point of 212.29 °C and an IC50 (human DGAT1) of 9.55 nM.

For `CC(C)(C)OC(=O)NC1(C(=O)Nc2ccc(N3CCN(C(=O)Nc4c(Cl)cccc4Cl)CC3)cc2)CCCC1` [Compound 5], the melting point was 242.6 °C and the IC50 (human DGAT1) was 151 nM.

`CCOC(=O)c1ccccc1NC(=O)N1CCN(c2ccc(NC(=O)CCCc3ccccc3)cc2)CC1` [Compound 91] gave a melting point of 194.7 °C and an IC50 (human DGAT1) of 5500 nM.

Compound `O=C(CCc1cccnc1)Nc1ccc(N2CCN(C(=O)Nc3c(Cl)cccc3Cl)CC2)cc1` [Compound 198] has a melting point of 260 to 261 °C and an IC50 (human DGAT1) of 229 nM.

Work on `COc1ccc(CC(=O)Nc2ccc(N3CCN(C(=O)Nc4c(Cl)cc(C(=O)N5CCN(C)CC5)cc4Cl)CC3)cc2)cc1` [Compound 305] yielded a melting point of 253.39 °C and an IC50 (human DGAT1) of 24.5 nM.

`O=C(CCOc1ccccc1)Nc1ccc(N2CCN(C(=O)Nc3c(Cl)cccc3Cl)CC2)cc1` [Compound 3] gave a melting point of 268.2 °C and an IC50 (human DGAT1) of 7.59 nM.

Work on `O=C(CCCc1ccccc1)Nc1ccc(N2CCN(C(=O)Nc3ccccc3I)CC2)cc1` [Compound 78] yielded a melting point of 153.3 °C and an IC50 (human DGAT1) of 126 nM.

In the case of `COc1ccc(CC(=O)Nc2ccc(N3CCN(C(=O)Nc4c(Cl)cc(C[N+]5([O-])CCCC5)cc4Cl)CC3)cc2)cc1` [Compound 299], the melting point is reported as 168.24 °C and the IC50 (human DGAT1) is reported as 19.1 nM.

In the case of `O=C(NCc1ccco1)c1ccc(N2CCN(C(=O)Cc3c(Cl)cccc3Cl)CC2)cc1` [Compound 258], the melting point is reported as 238.35 °C and the IC50 (human DGAT1) is reported as 759 nM.

`Cc1ccc(NCC(=O)Nc2ccc(N3CCN(C(=O)Nc4c(Cl)cccc4Cl)CC3)cc2)c(C)c1` [Compound 22] showed a melting point of 248 to 249 °C and an IC50 (human DGAT1) of 14.8 nM.

Compound `CC1CCCN1CCC(=O)Nc1ccc(N2CCN(C(=O)Nc3c(Cl)cccc3Cl)CC2)cc1` (stereo not drawn) [Compound 176] has a melting point of 232 to 233 °C and an IC50 (human DGAT1) of 6170 nM.

Compound `Cc1cc(C)c(NC(=O)N2CCN(c3ccc(NC(=O)CCCc4ccccc4)cc3)CC2)c(C)c1` [Compound 68] has a melting point of 223 °C and an IC50 (human DGAT1) of 12.3 nM.

For `O=C(CCCc1ccccc1)Nc1ccc(N2CCN(C(=O)Nc3c(Cl)cc(CO)cc3Cl)CC2)cc1` [Compound 28], the melting point was 196.1 °C and the IC50 (human DGAT1) was 1.95 nM.

For `CC(c1cc(Cl)c(NC(=O)N2CCN(c3ccc(NC(=O)CCCc4ccccc4)cc3)CC2)c(Cl)c1)N1CCCCC1` (stereo not drawn) [Compound 56], the melting point was 218 °C and the IC50 (human DGAT1) was 16.2 nM.

Compound `CN(CC(=O)Nc1ccc(N2CCN(C(=O)Nc3c(Cl)cccc3Cl)CC2)cc1)C(=O)Cc1ccccc1` [Compound 171] has a melting point of 253 to 255 °C and an IC50 (human DGAT1) of 28.2 nM.

For `CCCc1ccccc1NC(=O)N1CCN(c2ccc(NC(=O)CCCc3ccccc3)cc2)CC1` [Compound 77], the melting point was 200.2 °C and the IC50 (human DGAT1) was 1660 nM.

With `COc1ccc(CC(=O)Nc2ccc(N3CCN(C(=O)Oc4c(Cl)cc(CN(C)C)cc4Cl)CC3)cc2)cc1` [Compound 312] the melting point was 182.46 °C and the IC50 (human DGAT1) was 44.7 nM.

`O=C(CCCc1ccccc1)Nc1ccc(N2CCN(C(=O)Nc3ccccc3Br)CC2)cc1` [Compound 95] gave a melting point of 147.4 °C and an IC50 (human DGAT1) of 126 nM.

Compound `CN(C)CCC(=O)Nc1ccc(N2CCN(C(=O)Nc3c(Cl)cccc3Cl)CC2)cc1` [Compound 196] has a melting point of 194 to 196 °C and an IC50 (human DGAT1) of 6760 nM.

For `COCCOCC(=O)Nc1ccc(N2CCN(C(=O)Nc3c(Cl)cccc3Cl)CC2)cc1` [Compound 45], the melting point was 178.7 °C and the IC50 (human DGAT1) was 2340 nM.

For `O=C(CNc1ccc(F)cc1)Nc1ccc(N2CCN(C(=O)Nc3c(Cl)cccc3Cl)CC2)cc1` [Compound 36], the melting point was 254.2 °C and the IC50 (human DGAT1) was 87.1 nM.

For `COc1ccc(CC(=O)Nc2ccc(N3CCN(C(=O)Nc4c(Cl)cc(CN5CCN(S(C)(=O)=O)CC5)cc4Cl)CC3)cc2)cc1` [Compound 268], the melting point was 224.69 °C and the IC50 (human DGAT1) was 1.7 nM.

With `O=C(CCCc1ccccc1)Nc1ccc(N2CCN(C(=O)Nc3c(Cl)cc(Br)c4c3CCO4)CC2)cc1` [Compound 46] the melting point was 223 °C and the IC50 (human DGAT1) was 331 nM.

Compound `CC(O)c1cc(Cl)c(NC(=O)N2CCN(c3ccc(NC(=O)CCCc4ccccc4)cc3)CC2)c(Cl)c1` (stereo not drawn) [Compound 29] has a melting point of 187.3 °C and an IC50 (human DGAT1) of 3.98 nM.

`Cc1ccc(NCCC(=O)Nc2ccc(N3CCN(C(=O)Nc4c(Cl)cccc4Cl)CC3)cc2)c(C)c1` [Compound 298] showed a melting point of 241 to 242 °C and an IC50 (human DGAT1) of 17.4 nM.

Work on `CC(C)(C)c1ccccc1NC(=O)N1CCN(c2ccc(NC(=O)CCCc3ccccc3)cc2)CC1` [Compound 89] yielded a melting point of 227.2 °C and an IC50 (human DGAT1) of 2190 nM.

Work on `COc1ccc(CNC(=O)c2ccc(N3CCN(C(=O)Nc4c(Cl)cc(CN5CCCC5)cc4Cl)CC3)cc2)cc1` [Compound 232] yielded a melting point of 222.04 °C and an IC50 (human DGAT1) of 46.8 nM.

Work on `CCOC(=O)CC(=O)Nc1ccc(N2CCN(C(=O)Nc3c(Cl)cccc3Cl)CC2)cc1` [Compound 50] yielded a melting point of 219.9 °C and an IC50 (human DGAT1) of 95.5 nM.

Compound `Cc1ccccc1CNC(=O)c1ccc(N2CCN(C(=O)Cc3c(Cl)cccc3Cl)CC2)cc1` [Compound 233] has a melting point of 244.09 °C and an IC50 (human DGAT1) of 50.1 nM.

In the case of `Cc1ccc(CNCC(=O)Nc2ccc(N3CCN(C(=O)Nc4c(Cl)cccc4Cl)CC3)cc2)c(C)c1` [Compound 181], the melting point is reported as 163 to 165 °C and the IC50 (human DGAT1) is reported as 75.9 nM.

Work on `O=C(CNCc1ccc(F)cc1)Nc1ccc(N2CCN(C(=O)Nc3c(Cl)cccc3Cl)CC2)cc1` [Compound 35] yielded a melting point of 169.9 °C and an IC50 (human DGAT1) of 240 nM.

For `O=C(CCCc1ccccc1)Nc1ccc(N2CCN(/C=C/C(=O)c3c(Cl)cccc3Cl)CC2)cc1` [Compound 18], the melting point was 178.2 °C and the IC50 (human DGAT1) was 120 nM.

`CC(NCCCN(C)C)c1cc(Cl)c(NC(=O)N2CCN(c3ccc(NC(=O)CCCc4ccccc4)cc3)CC2)c(Cl)c1` (stereo not drawn) [Compound 54] showed a melting point of 125.4 °C and an IC50 (human DGAT1) of 23.4 nM.

For `COc1ccc(CN(CCC(=O)Nc2ccc(N3CCN(C(=O)Nc4c(Cl)cccc4Cl)CC3)cc2)S(=O)(=O)c2ccccc2[N+](=O)[O-])cc1` [Compound 173], the melting point was 197 to 199 °C and the IC50 (human DGAT1) was 34.7 nM.

Work on `C=CCN(CC(=O)Nc1ccc(N2CCN(C(=O)Nc3c(Cl)cc(OC)cc3Cl)CC2)cc1)Cc1ccc(C)cc1C` [Compound 281] yielded a melting point of 149 to 150 °C and an IC50 (human DGAT1) of 7.24 nM.

With `O=C(CCCc1ccccc1)Nc1ccc(N2CCN(C(=O)Cc3ccccc3)CC2)cc1` [Compound 338] the melting point was 146.12 °C and the IC50 (human DGAT1) was 2570 nM.

With `O=C(COC(=O)c1ccccc1)Nc1ccc(N2CCN(C(=O)Nc3c(Cl)cc(CN4CCCC4)cc3Cl)CC2)cc1` [Compound 304] the melting point was 243.74 °C and the IC50 (human DGAT1) was 21.9 nM.

Work on `CCC(C)c1ccccc1NC(=O)N1CCN(c2ccc(NC(=O)CCCc3ccccc3)cc2)CC1` (stereo not drawn) [Compound 86] yielded a melting point of 207.8 °C and an IC50 (human DGAT1) of 1700 nM.

In the case of `O=C(CCc1ccccn1)Nc1ccc(N2CCN(C(=O)Nc3c(Cl)cccc3Cl)CC2)cc1` [Compound 9], the melting point is reported as 187 to 188 °C and the IC50 (human DGAT1) is reported as 550 nM.

In the case of `O=C(NCc1ccncc1)c1ccc(N2CCN(C(=O)Cc3c(Cl)cccc3Cl)CC2)cc1` [Compound 251], the melting point is reported as 239.51 °C and the IC50 (human DGAT1) is reported as 191 nM.
